US11440907B1 (Merck Patent GmbH, priority 2018, dated 2022)

How the values were obtained:
Assay type in all cases: cell-based
[1] = test system: XBP1(u)-luciferase splicing reporter in HepG2 hepatoma cells; test: HepG2 XBP1 reporter assay (XBP1(u)-Luc); conditions: Homo sapiens; for IC50: 6 h, six hours after addition of compound; for EC50: 6 hours after compound addition, Table 3, read-out: XBP1-luc HepG2 1 EC50
[2] = test system: NCI-H929 (Multiple myeloma cells); test: Cell viability (ATPLite) in NCI-H929; conditions: Homo sapiens, 96 hours
Description: Cells were removed from liquid nitrogen storage, thawed and expanded in appropriate growth media. Once expanded, cells were seeded in 384-well tissue culture treated plates at 500 cells per well. After 24 hours, cells were treated for either 0 hours or treated for 96 hours with a testing compound (at the concentrations of 100 nM and 2 uM). At the end of either 0 hours or 96 hours, cell status was analyzed using ATPLite (Perkin Elmer) to assess the biological response of cells to the testing compound.

[3] = test system: β-catenin-TCF-mediated reporter transcription activity in Colo 205 cells; test: Colo 205 reporter assay (TCF/LEF promoter-driven firefly luciferase); conditions: Homo sapiens; Colo 205 TCF/LEF luciferase reporter, 5 hours after compound addition, 384 well; read-out: Colo205 IC50

Structure (SMILES)	IC50 [1]	IC50 [2]	EC50 [1]	IC50 [3]
Cc1cc(N2CCCOC[C@@H]2c2ccc(OCS(C)(=O)=O)cc2Cl)nc(N)n1 [D-1]	0.6 to 2 µM	≥ 25 µM		
Cc1cc(N2CCCOC[C@H]2c2ccc(OCS(C)(=O)=O)cc2Cl)nc(N)n1 [D-2]	< 0.6 µM	< 1 µM		
Cc1cc(N2CCCOC[C@@H]2c2ccc(S(=O)(=O)C3CCC3)cc2Cl)nc(N)n1 [D-3]	0.6 to 2 µM	≥ 25 µM		
COc1cc(F)c(F)cc1[C@H]1COCCCN1c1cc(C)nc(N)n1 [D-4]	< 0.6 µM	≥ 25 µM		
COc1cc(F)c(F)cc1[C@@H]1COCCCN1c1cc(C)nc(N)n1 [D-5]	0.6 to 2 µM	1 to 10 µM		
Cc1cc(N2CCCOC[C@@H]2c2ccc(NC(=O)CCO)cc2Cl)nc(N)n1 [D-6]	0.6 to 2 µM	1 to 10 µM		
Cc1cc(N2CCCOC[C@H]2c2ccc(NC(=O)CCO)cc2Cl)nc(N)n1 [D-7]	0.6 to 2 µM	< 1 µM		
Cc1cc(N2CCCOC[C@@H]2c2ccc(NC(=O)C(F)F)cc2Cl)nc(N)n1 [D-8]	0.6 to 2 µM	≥ 25 µM		
Cc1cc(N2CCCOC[C@@H]2c2cc3c(cc2Cl)NCCC3)nc(N)n1 [D-9]	< 0.6 µM	< 1 µM		
Cc1cc(N2CCCOC[C@@H]2c2cc(N)c(C(F)(F)F)cc2Cl)nc(N)n1 [D-10]	< 0.6 µM	< 1 µM		
Cc1cc(N2CCCOCC2c2cc(OC(F)F)c(Cl)cc2Cl)nc(N)n1 [D-11]	2 to 5 µM	10 to 25 µM		
CCC(=O)Nc1cc(Cl)c(C2COCCCN2c2cc(C)nc(N)n2)cc1C [D-12]	0.6 to 2 µM	1 to 10 µM		
Cc1cc(N2CCCOCC2c2cc(C)c(N3CCC(C)(O)CC3)cc2Cl)nc(N)n1 [D-13]	0.6 to 2 µM	≥ 25 µM		
Cc1cc(N2CCCOC[C@@H]2c2cc3c(cc2Cl)N(C)CC3)nc(N)n1 [D-14]	< 0.6 µM	< 1 µM		
COc1cc(C2COCCCN2c2cc(C)nc(N)n2)c(Cl)cc1N1CCCC1 [D-17]	0.6 to 2 µM	1 to 10 µM		
COc1cc(C2COCCCN2c2cc(C)nc(N)n2)c(Cl)cc1OCCCC#N [D-18]	0.6 to 2 µM	1 to 10 µM		
COc1cc(C2COCCCN2c2cc(C)nc(N)n2)c(Cl)cc1N1CCOCC1 [D-19]	0.6 to 2 µM	1 to 10 µM		
Cc1cc(N2CCCOC[C@@H]2c2cc(O)c(C)cc2Cl)nc(N)n1 [D-20]	< 0.6 µM	< 1 µM		
CCOc1cc(C2COCCCN2c2cc(C)nc(N)n2)c(Cl)cc1O [D-21]	< 0.6 µM	1 to 10 µM		
Cc1cc(N2CCCOC[C@@H]2c2ccc(CS(C)(=O)=O)cc2OC(F)F)nc(N)n1 [D-22]	< 0.6 µM	< 1 µM		

Structure (SMILES)	IC50 [1]	IC50 [2]	EC50 [1]	IC50 [3]
Cc1cc(N2CCCOCC2c2cc(O)c(C(=O)O)cc2Cl)nc(N)n1 [D-23]	< 0.6 µM	≥ 25 µM		
COc1cc(C2COCCCN2c2cc(C)nc(N)n2)c(Cl)cc1OCC(=O)N1CCCCC1 [D-24]	< 0.6 µM	≥ 25 µM		
CNc1cc(Cl)c([C@@H]2COCCCN2c2cc(C)nc(N)n2)cc1C [D-25]	< 0.6 µM	≥ 25 µM		
CNc1cc(Cl)c([C@H]2COCCCN2c2cc(C)nc(N)n2)cc1C [D-26]	< 0.6 µM	< 1 µM		
Cc1cc(N2CCCOC[C@H]2c2cc3c(cc2Cl)CCN3C)nc(N)n1 [D-27]	< 0.6 µM	10 to 25 µM		
Cc1cc(N2CCCOC[C@@H]2c2cc3c(cc2Cl)CCN3C)nc(N)n1 [D-28]	< 0.6 µM	< 1 µM		
Cc1cc(N2CCCOC[C@H]2c2ccc(N)cc2Cl)nc(N)n1 [D-29]	< 0.6 µM	≥ 25 µM		
Cc1cc(N2CCCOC[C@@H]2c2ccc(N)cc2Cl)nc(N)n1 [D-30]	< 0.6 µM	< 1 µM		
Cc1cc(N2CCCOC[C@@H]2c2cc3c(cc2Cl)OCC(C)(C)CO3)nc(N)n1 [D-31]	< 0.6 µM	< 1 µM		
Cc1cc(N2CCCOCC2c2ccc(CS(C)(=O)=O)nc2F)nc(N)n1 [D-33]	2 to 5 µM	≥ 25 µM		
CCOc1cc([C@H]2COCCCN2c2cc(C)nc(N)n2)c(Cl)cc1OC [D-34]	< 0.6 µM	< 1 µM		
CCOC(=O)Cc1cc(C2COCCCN2c2cc(C)nc(C)n2)c(Cl)cc1C#N [D-35]	2 to 5 µM	10 to 25 µM		
CCOC(=O)[C@]1(C)CNc2cc(Cl)c([C@H]3COCCCN3c3cc(C)nc(N)n3)cc2O1 [D-36]	< 0.6 µM	< 1 µM		
CCOC(=O)[C@@]1(C)CNc2cc(Cl)c([C@H]3COCCCN3c3cc(C)nc(N)n3)cc2O1 [D-37]	0.6 to 2 µM	≥ 25 µM		
COc1cc([C@H]2COCCCN2c2cc(C)nc(N)n2)c(Cl)cc1OCC#N [D-38]	< 0.6 µM	< 1 µM		
COc1cc(N2CCCOCC2c2cc(C)nc(N)n2)c(Cl)cc1OCC(=O)Nc1ccccc1 [D-39]	0.6 to 2 µM	1 to 10 µM		
Cc1cc(N2CCCOCC2c2ncc(CS(C)(=O)=O)cc2Cl)nc(N)n1 [D-40]	< 0.6 µM	< 1 µM		
Cc1cc(N2CCCOC[C@@H]2c2ccc(CS(C)(=O)=O)cc2OC(F)(F)F)nc(N)n1 [D-41]	< 0.6 µM	< 1 µM		
CCOC(=O)OCc1cc(Cl)c(C2COCCCN2c2cc(C)nc(N)n2)cc1OCC [D-42]	0.6 to 2 µM	1 to 10 µM		
Cc1cc(N2CCCOCC2c2ncc(CS(C)(=O)=O)cc2F)nc(N)n1 [D-43]	0.6 to 2 µM	1 to 10 µM		

Structure (SMILES)	IC50 [1]	IC50 [2]	EC50 [1]	IC50 [3]
Cc1cc(N2CCCOC[C@@H]2c2cc(N)c(OC(F)(F)F)cc2Cl)nc(N)n1 [D-45]	< 0.6 µM	< 1 µM		
Cc1cc(N2CCCOCC2c2cc(CN)c(C)cc2Cl)nc(N)n1 [D-46]	< 0.6 µM	< 1 µM		
Cc1cc(N2CCCOCC2c2cnc(CS(C)(=O)=O)cc2Cl)nc(N)n1 [D-49]	< 0.6 µM	< 1 µM		
Cc1cc(N2CCCOCC2c2cc(O)c(OC(F)F)cc2Cl)nc(N)n1 [D-50]	< 0.6 µM	< 1 µM		
COc1ccc(C2COCCCN2c2cc(C)nc(N)n2)c(Cl)c1 [D-51]	< 0.6 µM	< 1 µM		
CCc1cc(N2CCCOCC2c2ccc(CS(C)(=O)=O)cc2Cl)nc(N)n1 [D-52]	< 0.6 µM	< 1 µM		
Cc1cc(N2CCCOCC2c2ccc(CS(C)(=O)=O)nc2OC(F)F)nc(N)n1 [D-54]	< 0.6 µM	1 to 10 µM		
Cc1cc(N2CCCOCC2c2ccc(CS(C)(=O)=O)cc2Cl)nc(N)n1 [D-55]	< 0.6 µM	< 1 µM		
Cc1cc(N2CCCOC[C@H]2c2cc(O)c(OC(F)F)cc2Cl)nc(N)n1 [D-56]	≥ 5 µM	10 to 25 µM		
Cc1cc(N2CCCOC[C@@H]2c2cc(O)c(OC(F)F)cc2Cl)nc(N)n1 [D-57]	< 0.6 µM	< 1 µM		
Cc1cc(N2CCCOC[C@H]2c2ccc(NC(=O)C3(F)CCOC3)cc2Cl)nc(N)n1 (stereo partly drawn) [D-58]	< 0.6 µM	< 1 µM		
CCc1cc(N2CCCOC[C@@H]2c2ccc(CS(C)(=O)=O)cc2Cl)nc(N)n1 [D-59]	< 0.6 µM	< 1 µM		
C#CCOc1cc(Cl)c(C2COCCCN2c2cc(C)nc(N)n2)cc1OC [D-60]	< 0.6 µM	1 to 10 µM		
Cc1cc(N2CCCOCC2c2ccc(C3CCNCC3)cc2Cl)nc(N)n1 [D-61]	< 0.6 µM	1 to 10 µM		
Cc1cc(N2CCCOC[C@H]2c2cc(N3CC[C@H](O)C3)ccc2Cl)nc(N)n1 [D-63]	< 0.6 µM	< 1 µM		
Cc1cc(N2CCCOC[C@@H]2c2cc(N3CC[C@H](O)C3)ccc2Cl)nc(N)n1 [D-64]	0.6 to 2 µM	1 to 10 µM		
Cc1cc(N2CCCOCC2c2cc(O)c(CS(C)(=O)=O)cc2Cl)nc(N)n1 [D-65]	< 0.6 µM	< 1 µM		
Cc1cc(N2CCCOCC2c2ccc(NC3COC3)cc2Cl)nc(N)n1 (stereo not drawn) [I-302]			< 0.6 µM	< 0.3 µM
COCC(OC)c1ccc(C2COCCCN2c2cc(C)nc(N)n2)c(Cl)c1 (stereo not drawn) [I-307]			< 0.6 µM	< 0.3 µM
Cc1cc(N2CCCOCC2c2ccc(NC(=O)C(C)(C)O)cc2Cl)nc(N)n1 (stereo not drawn) [I-308]			< 0.6 µM	< 0.3 µM
